Reference: PubChem BioAssay (NCI)
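Each compound was tested at five concentrations against cells in 96-well plates for 48 hours. GI50 marks 50% less growth. At the TGI there is no net growth.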

Tests used:
Test in all cases: inhibition of tumour cell growth, NCI panel, 48 h
MDA-MB-435 = tested on: MDA-MB-435
T-47D breast = tested on: T-47D breast
MDA-MB-231 breast = tested on: MDA-MB-231 breast
NCI/ADR-RES ovarian = tested on: NCI/ADR-RES ovarian
DLD-1 colon = tested on: DLD-1 colon
DMS 273 small cell lung = tested on: DMS 273 small cell lung
RXF-631 renal = tested on: RXF-631 renal
DMS 114 small cell lung = tested on: DMS 114 small cell lung
MDA-N = tested on: MDA-N

Row | Structure (SMILES) | GI50 (MDA-MB-435) [µM] | TGI (MDA-MB-435) [µM] | GI50 (T-47D breast) [µM] | TGI (T-47D breast) [µM] | GI50 (MDA-MB-231 breast) [µM] | TGI (MDA-MB-231 breast) [µM] | TGI (NCI/ADR-RES ovarian) [µM] | TGI (DLD-1 colon) [µM] | TGI (DMS 273 small cell lung) [µM] | TGI (DMS 114 small cell lung) [µM] | other results
1 | CO[C@H](C(=O)N[C@@H](CCCCNC(=O)OCc1ccccc1)C(=O)OC(C)(C)C)[C@@H]1Cc2cc3cc(OC4CC(OC5CC(O)C(O)C(C)O5)C(O)C(C)O4)c(C)c(O)c3c(O)c2C(=O)[C@H]1OC1CC(OC2CC(OC3CC(C)(O)C(O)C(C)O3)C(O)C(C)O2)C(O)C(C)O1 (some centres not stated) | 0.805 | 2.28 | 0.958 | > 10 | 0.939 | 3.1 | > 10 | – | – | – | –
2 | Cc1ccc2[nH]c(=O)c(C(C#N)c3ccccc3)nc2c1 (configuration not stated) | – | – | – | – | – | – | – | > 100 | > 100 | – | TGI (RXF-631 renal): > 100 µM
3 | COC(=O)/C(=C/CC(N=C(c1ccccc1)c1ccccc1)C(=O)OC)N=C(c1ccccc1)c1ccccc1 (configuration not stated) | – | – | – | – | – | – | – | > 100 | > 100 | 82.1 | –
4 | CN(C)CC1CCn2c(c(C3=C(c4cn(C)c5ccccc45)C(=O)NC3=O)c3ccccc32)C1 (configuration not stated) | 3.7 | 7.49 | 5.1 | 10.7 | 3.42 | 7.56 | 16.6 | – | – | – | GI50 (NCI/ADR-RES ovarian): 5.17 µM
5 | COc1ccccc1NC(=O)C1=C(C)NC(C)=C(C(=O)Nc2ccccc2OC)C1c1ccccc1OC | – | – | – | – | – | – | – | > 100 | > 100 | > 100 | TGI (RXF-631 renal): > 100 µM
6 | Cc1ccc(C2=NO[C@@H]3C(=O)N(c4ccc(Cc5ccc(N6C(=O)[C@H]7C(c8ccc(C)cc8)=NO[C@H]7C6=O)cc5)cc4)C(=O)[C@H]23)cc1 | – | – | – | – | – | – | – | > 100 | > 100 | > 100 | TGI (RXF-631 renal): > 100 µM
7 | Cn1cnc2c(NCc3ccccc3)nc(NCCO)nc21 | 114 | 313 | 206 | > 408 | 116 | 479 | 319 | – | – | – | –
8 | COc1cc(-c2c(C)c(C)nc(OC)c2C#N)cc(OC)c1OC | – | – | – | – | – | – | – | > 100 | – | > 100 | –
9 | CCOC(=O)C1C(c2ccc([N+](=O)[O-])cc2)NC(c2ccc([N+](=O)[O-])cc2)C(C(=O)OC)S1(=O)=O (configuration not stated) | – | – | – | – | – | – | – | > 100 | > 100 | > 100 | –
10 | O=C(Nc1ccc(Br)c(Cl)c1)c1cc(F)ccc1O | 1.01 | > 15.8 | 0.638 | 13.4 | 0.76 | 2.61 | > 15.6 | – | – | – | GI50 (NCI/ADR-RES ovarian): 1.04 µM
11 | CCN(CC)CCOc1cc2c(C(=O)OC)c(C)oc2cc1C(C)=O | 16.1 | 33.9 | 2.25 | 7.75 | 10.8 | 23.5 | 26.6 | – | – | – | GI50 (NCI/ADR-RES ovarian): 13.6 µM
12 | Cc1cc(C)n(-c2c(O)ccc(O)c2-n2nc(C)cc2C)n1 | – | – | – | – | – | – | – | > 100 | > 100 | > 100 | TGI (RXF-631 renal): > 100 µM
13 | CCC[CH2][Sn]([CH2]CCC)([S]C1=NCCS1)[S]C1=NCCS1 | – | – | – | – | – | – | – | 1.31 | 2.27 | 0.435 | GI50 (DLD-1 colon): 0.275 µM; GI50 (DMS 273 small cell lung): 0.705 µM; GI50 (DMS 114 small cell lung): 0.117 µM
14 | COC(=O)C#Cc1ccc([N+](=O)[O-])cc1 | – | 5.57 | – | 11.4 | – | 4.08 | 21.8 | – | – | – | TGI (MDA-N): 8.27 µM
